Source: publication PMC10468883, “Synthesis and Anticancer Activities of Pyrazole–Thiadiazole-Based EGFR Inhibitors” (ACS Omega, 2023)

Experiments:
A549 cell line = assay: MTT cytotoxicity assay (24 h), A549 cell line; format: cell-based; conditions: for SI for A549: selectivity index, NIH3T3 vs A549
Procedure: Thanks to this color change, the cell viability rate can be determined spectrometrically.[33]Table 1 presents the results of the MTT experiment performed with the 24 h procedure using two cancer lines (A549 and MCF-7) and a healthy cell line (NIH3T3). Doxorubicin is used as a reference drug. MTT assays were performed as previously described.[34]−[36] Cytotoxicity assays of compounds 6a–6j were performed with the 24 h MTT procedure. […] These compounds include allyl (6d), phenyl (6g), and 4-chlorophenyl (6j) moieties. […] The selectivity indexes of compounds 6d, 6g, and 6j were calculated as 2.3, 7.23, and 5.68, respectively. […] It can be predicted that the side effect and toxic effect profile of compound 6g will be less than that of compounds 6d and 6j.

MCF-7 cell line = assay: MTT cytotoxicity assay (24 h), MCF-7 cell line; format: cell-based; conditions: for IC50: MTT, 24 h, MCF-7 cell line, means of quartet assays; for SI for MCF-7: selectivity index, NIH3T3 vs MCF-7
Procedure: (§1) The principle of the MTT test used to determine the metabolic activity of living cells is based on the reduction of […] 3-(4,5-dimethylthiazol-2-yl)-2,5 diphenyltetrazolium salt to the purple-colored formazan product. Thanks to this color change, the cell viability rate can be determined spectrometrically.[33]Table 1 presents the results of the MTT experiment performed with the 24 h procedure using two cancer lines (A549 and MCF-7) and a healthy cell line (NIH3T3). Doxorubicin is used as a reference drug. MTT assays were performed as previously described.[34]−[36]
(§2) Cytotoxicity assays of compounds 6a–6j were performed with the 24 h MTT procedure. […]. […] […]. […] The selectivity indexes of compounds 6d, 6g, and 6j were calculated as 2.3, 7.23, and 5.68, respectively. […] It can be predicted that the side effect and toxic effect profile of compound 6g will be less than that of compounds 6d and 6j.

NIH3T3 healthy cell line = assay: MTT cytotoxicity assay (24 h), healthy cell line NIH3T3; format: cell-based; conditions: means of quartet assays
Procedure: as §1, §2

A549 cells = assay: Mitochondrial membrane potential (MMP) by flow cytometry, JC-1 dye; format: cell-based; conditions: substance at IC50 concentration, 24 h incubation
Procedure: In the first step, A549 cells seeded in 25 mL flasks were incubated for 24 h in a 5% CO2 incubator. […] Cells were collected and centrifuged in line with the instructions in the kit at the conclusion of this period. The upper part was removed, JC-1 dye was added, and the mixture was incubated for 10–15 min at 37 °C. The CytoFLEX flow cytometer (Beckman Coulter Life Sciences, USA) and CytExpert for CytoFLEX Acquisition and Analysis Software Version 2.2.0.97 were used to read it after two washings with washing solution at the conclusion of the period.
Both the inhibitory compound and the reference drug were administered at IC50 concentrations. After a 24 h incubation period (5% CO2), mitochondrial membrane potential was determined by flow cytometry using JC-1 dye.

EGFR enzyme = target: T1, EGFR enzyme (Homo sapiens, UniProt P00533); assay: EGFR Kinase Assay Kit inhibition assay; format: biochemical; conditions: in vitro kit method
T1 construct: purchased
T1 sequence (P00533 25-1210): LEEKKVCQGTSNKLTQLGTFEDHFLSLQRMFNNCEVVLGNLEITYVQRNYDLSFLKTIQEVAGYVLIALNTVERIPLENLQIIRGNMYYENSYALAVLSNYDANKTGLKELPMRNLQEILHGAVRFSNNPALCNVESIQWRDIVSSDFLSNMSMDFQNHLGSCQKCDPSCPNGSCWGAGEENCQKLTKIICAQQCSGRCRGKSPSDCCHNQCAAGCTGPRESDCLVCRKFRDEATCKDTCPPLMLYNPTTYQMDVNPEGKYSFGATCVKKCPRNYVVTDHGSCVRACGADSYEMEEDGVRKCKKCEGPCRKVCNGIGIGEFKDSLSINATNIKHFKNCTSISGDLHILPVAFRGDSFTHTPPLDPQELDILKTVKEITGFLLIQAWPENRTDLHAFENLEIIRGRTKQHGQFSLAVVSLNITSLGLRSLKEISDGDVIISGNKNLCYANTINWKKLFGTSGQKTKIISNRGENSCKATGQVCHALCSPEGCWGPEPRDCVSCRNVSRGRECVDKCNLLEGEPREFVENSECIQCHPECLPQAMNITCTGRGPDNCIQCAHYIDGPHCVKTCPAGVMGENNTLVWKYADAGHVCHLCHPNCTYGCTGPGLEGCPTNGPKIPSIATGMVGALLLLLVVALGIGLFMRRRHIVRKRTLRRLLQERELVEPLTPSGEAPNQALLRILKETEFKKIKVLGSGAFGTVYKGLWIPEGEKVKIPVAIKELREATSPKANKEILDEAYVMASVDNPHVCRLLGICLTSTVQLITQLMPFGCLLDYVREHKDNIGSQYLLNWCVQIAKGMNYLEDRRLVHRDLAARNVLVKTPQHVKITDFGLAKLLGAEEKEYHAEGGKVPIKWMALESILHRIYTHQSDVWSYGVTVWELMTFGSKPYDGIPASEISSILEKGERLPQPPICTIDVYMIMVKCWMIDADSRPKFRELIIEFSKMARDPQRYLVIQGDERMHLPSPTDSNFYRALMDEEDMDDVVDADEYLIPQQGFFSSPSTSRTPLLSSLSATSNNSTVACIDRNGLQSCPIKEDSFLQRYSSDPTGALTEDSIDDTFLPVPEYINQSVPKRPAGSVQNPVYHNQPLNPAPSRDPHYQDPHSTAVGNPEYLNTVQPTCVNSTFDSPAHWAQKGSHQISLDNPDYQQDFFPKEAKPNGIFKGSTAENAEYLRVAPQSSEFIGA
Procedure: The EGFR Kinase Assay Kit (available from ref ([38])) was used for the EGFR inhibition. The kit protocol was followed, and the experiment was carried out in vitro.
EGFR kinase, which belongs to the ErbB family of tyrosine kinases, is known to regulate the signaling pathways of cell survival, migration, proliferation, differentiation, and adhesion.[52] Inhibition of this member of the tyrosine kinase family, which is a new approach in cancer chemotherapy, is important.

[1] = Homo sapiens, A549, 24 h, MTT, 24 h, A549 cell line, means of quartet assays
[2] = MTT, 24 h, A549 cell line, means of quartet assays

| SMILES | IC50 (A549 cell line; [1]) | SI for A549 (A549 cell line) | IC50 (MCF-7 cell line; Homo sapiens, MCF7, 24 h) | SI for MCF-7 (MCF-7 cell line) | IC50 (NIH3T3 healthy cell line; Mus musculus, NIH3T3, 24 h) | IC50 (A549 cell line; [2]) | IC50 (MCF-7 cell line) | IC50 (NIH3T3 healthy cell line) | mitochondrial membrane potential (P3) (A549 cells) | IC50 A549 (A549 cell line; [2]) | IC50 (EGFR enzyme) |
| --- | --- | --- | --- | --- | --- | --- | --- | --- | --- | --- | --- |
| CC(C)Nc1nnc(SCC(=O)N2N=C(c3ccccc3)CC2c2ccc([N+](=O)[O-])cc2)s1 (stereo not drawn) [Compound 6c, 2-((5-(Isopropylamino)-1,3,4-thiadiazol-2-yl)thio)-1-(5-(4-nitrophenyl)-3-phenyl-4,5-dihydro-1H-pyrazol-1-yl)ethan-1-one] | 27.9 ± 1.28 µM | 1.19 | > 100 µM | <0.33 | 33.2 ± 2.37 µM | – | – | – | – | – | – |
| O=C(CSc1nnc(Nc2ccc(Cl)cc2)s1)N1N=C(c2ccccc2)CC1c1ccc([N+](=O)[O-])cc1 (stereo not drawn) [Compound 6j, 2-((5-((4-Chlorophenyl)amino)-1,3,4-thiadiazol-2-yl)thio)-1-(5-(4-nitrophenyl)-3-phenyl-4,5-dihydro-1H-pyrazol-1-yl)ethan-1-one] | 8.49 ± 0.667 µM | 5.68 | 67.2 ± 3.63 µM | 0.72 | 48.3 ± 1.72 µM | 8.49 ± 0.67 µM | 67.2 ± 3.63 µM | – | – | – | – |
| C=CCNc1nnc(SCC(=O)N2N=C(c3ccccc3)CC2c2ccc([N+](=O)[O-])cc2)s1 (stereo not drawn) [Compound 6d, 2-((5-(Allylamino)-1,3,4-thiadiazol-2-yl)thio)-1-(5-(4-nitrophenyl)-3-phenyl-4,5-dihydro-1H-pyrazol-1-yl)ethan-1-one] | 5.18 ± 0.164 µM | 2.3 | 35.7 ± 2.24 µM | 0.33 | 11.9 ± 0.486 µM | 5.18 ± 0.16 µM | 35.7 ± 2.24 µM | 11.9 ± 0.49 µM | – | – | – |
| COc1ccc(Nc2nnc(SCC(=O)N3N=C(c4ccccc4)CC3c3ccc([N+](=O)[O-])cc3)s2)cc1 (stereo not drawn) [Compound 6i, 2-((5-((4-Methoxyphenyl)amino)-1,3,4-thiadiazol-2-yl)thio)-1-(5-(4-nitrophenyl)-3-phenyl-4,5-dihydro-1H-pyrazol-1-yl)ethan-1-one] | 16.6 ± 0.21 µM | >6.01 | > 100 µM | – | > 100 µM | – | – | – | – | – | – |
| CCNc1nnc(SCC(=O)N2N=C(c3ccccc3)CC2c2ccc([N+](=O)[O-])cc2)s1 (stereo not drawn) [Compound 6a, 2-((5-(Ethylamino)-1,3,4-thiadiazol-2-yl)thio)-1-(5-(4-nitrophenyl)-3-phenyl-4,5-dihydro-1H-pyrazol-1-yl)ethan-1-one] | 13.9 ± 0.25 µM | 6.24 | > 100 µM | <0.87 | 86.7 ± 4.07 µM | – | – | – | – | – | – |
| CCCNc1nnc(SCC(=O)N2N=C(c3ccccc3)CC2c2ccc([N+](=O)[O-])cc2)s1 (stereo not drawn) [Compound 6b, 1-(5-(4-Nitrophenyl)-3-phenyl-4,5-dihydro-1H-pyrazol-1-yl)-2-((5-(propylamino)-1,3,4-thiadiazol-2-yl)thio)ethan-1-one] | 15.8 ± 0.75 µM | – | 63.4 ± 2.09 µM | – | 47.2 ± 4.53 µM | – | – | – | – | – | – |
| Cc1ccc(Nc2nnc(SCC(=O)N3N=C(c4ccccc4)CC3c3ccc([N+](=O)[O-])cc3)s2)cc1 (stereo not drawn) [Compound 6h, 1-(5-(4-Nitrophenyl)-3-phenyl-4,5-dihydro-1H-pyrazol-1-yl)-2-((5-(p-tolylamino)-1,3,4-thiadiazol-2-yl)thio)ethan-1-one] | 29.1 ± 1.01 µM | >3.44 | 92.6 ± 1.89 µM | >1.08 | > 100 µM | – | – | – | – | – | – |
| COc1cccc2c1C(=O)c1c(O)c3c(c(O)c1C2=O)C[C@@](O)(C(=O)CO)C[C@@H]3O[C@H]1C[C@H](N)[C@H](O)[C@H](C)O1 [doxorubicin, reference compound] | 2.67 ± 0.12 µM | >374.95 | 1.59 ± 0.1 µM | >629.33 | > 1000 µM | – | – | – | 30.27% | – | – |
| O=C(CSc1nnc(NC2CCCCC2)s1)N1N=C(c2ccccc2)CC1c1ccc([N+](=O)[O-])cc1 (stereo not drawn) [Compound 6f, 2-((5-(Cyclohexylamino)-1,3,4-thiadiazol-2-yl)thio)-1-(5-(4-nitrophenyl)-3-phenyl-4,5-dihydro-1H-pyrazol-1-yl)ethan-1-one] | > 100 µM | <0.61 | > 100 µM | <0.61 | 60.5 ± 3.72 µM | – | – | – | – | no activity | – |
| O=C(CSc1nnc(Nc2ccccc2)s1)N1N=C(c2ccccc2)CC1c1ccc([N+](=O)[O-])cc1 (stereo not drawn) [Compound 6g, 1-(5-(4-Nitrophenyl)-3-phenyl-4,5-dihydro-1H-pyrazol-1-yl)-2-((5-(phenylamino)-1,3,4-thiadiazol-2-yl)thio)ethan-1-one] | – | 7.22 | 15.93 ± 0.054 µM | 0.70 | 11.1 ± 0.205 µM | – | 15.93 ± 0.05 µM | 11.1 ± 0.21 µM | 80.93% | – | 0.024 ± 0.002 µM |
